For four molecules, IC50 results are on record in patent US9556168B2, “N-alkylated indole and indazole compounds as RORgammaT inhibitors and uses thereof” (Merck Sharp & Dohme Corp., priority 2012, dated 2017).

SMILES strings stand for the structures. Where two headings read alike, the source gives them in different places.

For orientation: IC50 means the concentration needed to halve the response being measured. Low values mean greater potency, high ones weaker potency.

For this test, the target named is human RORgammaT-Ligand Binding Domain (LBD) (Homo sapiens (Human), UniProt P51449). Description: RORγ-Ligand Binding Domain TR-FRET assay (co-activator peptide SRC1_2 recruitment). The format is biochemical.
The mark [1] stands for this setting: HIS-tagged RORγ-LBD 3 nM, biotinylated SRC1 LXXLL peptide 100 nM, incubated overnight at 4° C., 665 nm/615 nm signal quotient.

human RORgammaT-Ligand Binding Domain (LBD), sequence (P51449 269-508): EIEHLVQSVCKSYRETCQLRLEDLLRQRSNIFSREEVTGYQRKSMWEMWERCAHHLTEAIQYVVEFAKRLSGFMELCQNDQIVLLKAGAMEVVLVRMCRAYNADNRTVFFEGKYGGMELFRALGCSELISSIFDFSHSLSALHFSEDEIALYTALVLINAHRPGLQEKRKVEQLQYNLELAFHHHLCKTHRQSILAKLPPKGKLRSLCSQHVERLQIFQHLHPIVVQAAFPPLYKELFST

For the molecule `N#Cc1ccc(Cl)cc1Cn1nc(-c2ccc(C(=O)O)cc2F)c2ncccc21` [Example 1J, 4-[1-(5-chloro-2-cyanobenzyl)-1H-pyrazolo[4,3-b]pyridin-3-yl]-3-fluorobenzoic acid], the IC50 was over 10 µM. For `CC(c1ccccc1C(F)(F)F)n1nc(-c2ccc(C(=O)O)cc2F)c2ncccc21` (stereo not shown) [Example 1K, 3-fluoro-4-(1-{1-[2-(trifluoromethyl)phenyl]ethyl}-1H-pyrazolo[4,3-b]pyridin-3-yl)benzoic acid], the IC50 under setting [1] was over 10 µM. Still for that read-out and setting: the figure for `O=C(O)c1ccc(-c2nn(Cc3c(F)ccc(F)c3F)c3cccnc23)c(F)c1` [Example 1N, 3-fluoro-4-[1-(2,3,6-trifluorobenzyl)-1H-pyrazolo[4,3-b]pyridin-3-yl]benzoic acid] is over 10 µM; for `O=C(O)c1ccc(-c2nn(Cc3c(F)cccc3F)c3cccnc23)c(F)c1` [Example 1P, 4-[1-(2,6-difluorobenzyl)-1H-pyrazolo[4,3-b]pyridin-3-yl]-3-fluorobenzoic acid] it is over 10 µM.
